From patent publication US9278922B2 (ABBVIE INC., priority 2009, dated 2016) come the findings set out here.

Each structure is given as a SMILES string.

This test concerns HCV 1b-Con-1 replicon. The test is described as follows: HCV 1b-Con-1 replicon assay (luciferase reporter gene, HuH-7 cells). It counts as cell-based, Hepatitis C virus (HCV) genotype 1b-Con1. Particulars: Hepatitis C virus, Huh-7, luciferase reporter gene activity in the replicon, in the presence of 5% FBS.
Broadly, the EC50 is the concentration giving half of the maximal effect. With `O=C(Nc1ccc(CN(Cc2ccc(NC(=O)[C@@H]3CCCN3C(=O)C(c3ccccc3)C3(O)CCCC3)cc2)c2ccc(F)cc2)cc1)[C@@H]1CCCN1C(=O)C(c1ccccc1)C1(O)CCCC1` (stereo partly drawn) [Example 106, (2S ,2′S)-N,N′-{[(4-fluorophenyl)imino]bis(methanediylbenzene-4,1-diyl)}bis{1-[(1-hydroxycyclopentyl)(phenyl)acetyl]pyrrolidine-2-carboxamide}], the EC50 was less than 1 nM. Take `COC(=O)N[C@H](C(=O)N1CCC[C@H]1C(=O)Nc1ccc(CN(Cc2ccc(NC(=O)[C@@H]3CCCN3C(=O)[C@@H](NC(=O)OC)C(C)C)cc2)C(C)C)cc1)C(C)C` [Example 24, dimethyl ([(1-methylethyl)imino]bis{methanediylbenzene-4,1-diylcarbamoyl(2S)pyrrolidine-2,1-diyl[(2S)-3-methyl-1-oxobutane-1,2-diyl]})biscarbamate]: the concentration for a half-maximal effect (EC50) lay within 1 to 10 nM.

Consider `COC(=O)N[C@H](C(=O)N1CCC[C@H]1C(=O)Nc1ccc(CN(Cc2ccc(NC(=O)[C@@H]3CCCN3C(=O)[C@H](NC(=O)[C@H]3CCCO3)c3ccccc3)cc2)c2ccccc2)cc1)C(C)(C)C` [Example 88, N-(methoxycarbonyl)-3-methyl-L-valyl-N-[4-({phenyl[4-({1-[(2R)-2-phenyl-2-{[(2R)-tetrahydrofuran-2-ylcarbonyl]amino}acetyl]-L-prolyl}amino)benzyl]amino}methyl)phenyl]-L-prolinamide], for which the EC50 was less than 1 nM. Consider `CC(C)(C)[C@@H](C(=O)N1CCC[C@H]1C(=O)Nc1ccc(CN(Cc2ccc(NC(=O)[C@@H]3CCCN3C(=O)[C@@H](N3CCNC3=O)C(C)(C)C)cc2)c2ccccc2)cc1)N1CCNC1=O` [Example 31, (2S,2′S)-N,N′-[(phenylimino)bis(methanediylbenzene-4,1-diyl)]bis{1-[(2S)-3,3-dimethyl-2-(2-oxoimidazolidin-1-yl)butanoyl]pyrrolidine-2-carboxamide}], for which the EC50 is less than 1 nM. As to `COC(=O)N[C@H](C(=O)N1CCC[C@H]1C(=O)Nc1ccc(CN(Cc2ccc(NC(=O)[C@@H]3CCCN3C(=O)[C@@H](NC(=O)OC)[C@@H](C)O)cc2)[C@@H]2CCOC2)cc1)[C@@H](C)O` [Example 97, dimethyl ([(3R)-tetrahydrofuran-3-ylimino]bis{methanediylbenzene-4,1-diylcarbamoyl(2S)pyrrolidine-2,1-diyl[(2S,3R)-3-hydroxy-1-oxobutane-1,2-diyl]})biscarbamate], the EC50 lay within 100 to 250 nM. With `COC(=O)N[C@H](C(=O)N1CCC[C@H]1c1nc2cc(CN(Cc3ccc4[nH]c([C@@H]5CCCN5C(=O)[C@@H](NC(=O)OC)C(C)C)nc4c3)c3ccccc3)ccc2[nH]1)C(C)C` [Example 17, Dimethyl (2S,2′S)-1,1′-((2S,2′S)-2,2′-(5,5′-(phenylazanediyl)bis(methylene)bis(1H-benzo[d]imidazole-5,2-diyl))bis(pyrrolidine-2,1-diyl))bis(3-methyl-1-oxobutane-2,1-diyl)dicarbamate], the EC50 is less than 1 nM. As for `O=C(Nc1ccc(CN(Cc2ccc(NC(=O)[C@@H]3C[C@H](O)CN3C(=O)[C@@H](c3ccccc3)N3CCCCC3)cc2)c2ccc(F)cc2)cc1)[C@@H]1C[C@H](O)CN1C(=O)[C@@H](c1ccccc1)N1CCCCC1` [Example 127, (2S,4S,2′S,4′S)-N,N′-{[(4-fluorophenyl)imino]bis(methanediylbenzene-4,1-diyl)}bis{4-hydroxy-1-[(2R)-2-phenyl-2-piperidin-1-ylacetyl]pyrrolidine-2-carboxamide}], the concentration giving a half-maximal response (EC50) was less than 1 nM. As to `CCN(CC)[C@@H](C(=O)N1CCC[C@H]1C(=O)Nc1ccc(CN(Cc2ccc(NC(=O)[C@@H]3CCCN3C(=O)[C@@H](NC(=O)OC)C(C)(C)C)cc2)c2ccc(F)cc2)cc1)c1ccccc1` [Example 82, N-(methoxycarbonyl)-3-methyl-L-valyl-N-[4-({[4-({1-[(2R)-2-(diethylamino)-2-phenylacetyl]-L-prolyl}amino)benzyl](4-fluorophenyl)amino}methyl)phenyl]-L-prolinamide], the 50% effective concentration (EC50) is less than 1 nM. Take `COC(=O)N[C@H](C(=O)N1CCC[C@H]1C(=O)Nc1ccc(CN(Cc2ccc(NC(=O)[C@@H]3CCCN3C(=O)[C@@H](NC(=O)O[C@H]3CCOC3)C(C)(C)C)cc2)c2ccccc2)cc1)C(C)(C)C` [Example 59, methyl (3S)-tetrahydrofuran-3-yl[(phenylimino)bis{methanediylbenzene-4,1-diylcarbamoyl(2S)pyrrolidine-2,1-diyl[(2S)-3,3-dimethyl-1-oxobutane-1,2-diyl]}]biscarbamate]: the half-maximal effective concentration (EC50) lay in the range of 10 to 100 nM. Take `COC(=O)N[C@H](C(=O)N1CCC[C@H]1C(=O)Nc1ccc(CN(Cc2ccc(NC(=O)[C@@H]3CCCN3C(=O)[C@@H](NC(=O)OC)C(C)(C)C)cc2)[C@@H]2CCOC2)cc1)C(C)(C)C` [Example 44, dimethyl ([(3R)-tetrahydrofuran-3-ylimino]bis{methanediylbenzene-4,1-diylcarbamoyl(2S)pyrrolidine-2,1-diyl[(2S)-3,3-dimethyl-1-oxobutane-1,2-diyl]})biscarbamate]: the EC50 was 10 to 100 nM.

On to `COC(=O)N[C@H](C(=O)N1CCC[C@H]1C(=O)Nc1ccc(CN(Cc2ccc(NC(=O)[C@@H]3CCCN3C(=O)[C@@H](NC(=O)OC)C(C)C)cc2)c2ccc(F)cc2)cc1)C(C)C` [Example 14], for which the 50% effective concentration (EC50) is less than 1 nM.

On to `COCCN(Cc1ccc(NC(=O)[C@@H]2CCCN2C(=O)[C@@H](NC(=O)OC)C(C)(C)C)cc1)Cc1ccc(NC(=O)[C@@H]2CCCN2C(=O)[C@@H](NC(=O)OC)C(C)(C)C)cc1` [Example 32, dimethyl ([(2-methoxyethyl)imino]bis{methanediylbenzene-4,1-diylcarbamoyl(2S)pyrrolidine-2,1-diyl[(2S)-3,3-dimethyl-1-oxobutane-1,2-diyl]})biscarbamate], for which the concentration for a half-maximal effect (EC50) was 100 to 250 nM. On to `COC(=O)N[C@H](C(=O)N1CCC[C@H]1C(=O)Nc1ccc(CN(Cc2ccc(NC(=O)[C@@H]3CCCN3C(=O)[C@@H](NC(=O)OC)C(C)(C)C)cc2)c2ccon2)cc1)C(C)(C)C` [Example 33, dimethyl[(isoxazol-3-ylimino)bis{methanediylbenzene-4,1-diylcarbamoyl(2S)pyrrolidine-2,1-diyl[(2S)-3,3-dimethyl-1-oxobutane-1,2-diyl]}]biscarbamate], for which the EC50 was 1 to 10 nM. Consider `COC(=O)N[C@H](C(=O)N1CC[C@H](C)[C@H]1C(=O)Nc1ccc(CN(Cc2ccc(NC(=O)[C@@H]3[C@@H](C)CCN3C(=O)[C@@H](NC(=O)OC)C(C)(C)C)cc2)c2ccc(F)cc2)cc1)C(C)(C)C` [Example 145], for which the EC50 was less than 1 nM. Turning to `COC(=O)N[C@@H]1CCC[C@H]2CC[C@@H](C(=O)Nc3ccc(CN(Cc4ccc(NC(=O)[C@@H]5CC[C@@H]6CCC[C@@H](NC(=O)OC)C(=O)N65)cc4)c4ccccc4)cc3)N2C1=O` [Example 63, dimethyl [(phenylimino)bis{methanediylbenzene-4,1-diylcarbamoyl[(3S,6R,9aS)-5-oxooctahydro-1H-pyrrolo[1,2-a]azepine-3,6-diyl]}]biscarbamate], the EC50 is 10 to 100 nM.

For the compound `CCN(CC)[C@@H](C(=O)N1CCC[C@H]1C(=O)Nc1ccc(CN(Cc2ccc(NC(=O)[C@@H]3CCCN3C(=O)[C@@H](c3ccccc3)N(CC)CC)cc2)c2ccccc2)cc1)c1ccccc1` [Example 21, (R,2S,2′S)-N,N′-(4,4′-(phenylazanediyl)bis(methylene)bis(4,1-phenylene))bis(1-((R)-2-(diethylamino)-2-phenylacetyl)pyrrolidine-2-carboxamide)], the EC50 is less than 1 nM. Regarding `O=C(Nc1ccc(CN(Cc2ccc(NC(=O)[C@@H]3CCCN3C(=O)[C@H](O)c3ccccc3)cc2)c2ccc(F)cc2)cc1)[C@@H]1CCCN1C(=O)[C@H](O)c1ccccc1` [Example 110, (2S ,2′S)-N,N′-{[(4-fluorophenyl)imino]bis(methanediylbenzene-4,1-diyl)}bis{1-[(2R)-2-hydroxy-2-phenylacetyl]pyrrolidine-2-carboxamide}], the concentration giving a half-maximal response (EC50) is less than 1 nM. `CC[C@H](NC(=O)OC)C(=O)N1CCC[C@H]1C(=O)Nc1ccc(CN(Cc2ccc(NC(=O)[C@@H]3CCCN3C(=O)[C@@H](c3ccccc3)N3CCCCC3)cc2)c2ccc(F)cc2)cc1` [Example 115, methyl [(1S)-1-({(2S)-2-[(4-{[(4-fluorophenyl){4-[({(2S)-1-[(2R)-2-phenyl-2-piperidin-1-ylacetyl]pyrrolidin-2-yl}carbonyl)amino]benzyl}amino]methyl}phenyl)carbamoyl]pyrrolidin-1-yl}carbonyl)propyl]carbamate]: the EC50 was less than 1 nM. Regarding `COC(=O)N[C@H](C(=O)N1CCC[C@H]1C(=O)Nc1ccc(CN(Cc2ccc(NC(=O)[C@@H]3CCCN3C(=O)[C@@H](NC(=O)OC)C(C)(C)C)cc2)c2nccs2)cc1)C(C)(C)C` [Example 19], the EC50 lay in the range of 10 to 100 nM. For `CC(C)[C@@H](C(=O)N1CCC[C@H]1C(=O)Nc1ccc(CN(Cc2ccc(NC(=O)[C@@H]3CCCN3C(=O)[C@H](C(C)C)N3CCCC3=O)cc2)c2ccccc2)cc1)N1CCCC1=O` [Example 42, (2S,2′S)-N,N′-[(phenylimino)bis(methanediylbenzene-4,1-diyl)]bis {1-[(2S)-3-methyl-2-(2-oxopyrrolidin-1-yl)butanoyl]pyrrolidine-2-carboxamide}], the EC50 was less than 1 nM. Take `COC(=O)N[C@H](C(=O)N1CCC[C@H]1C(=O)Nc1ccc(CN(Cc2ccc(NC(=O)[C@@H]3CCCN3C(=O)[C@H](NC(=O)OC(C)(C)C)c3ccccc3)cc2)c2ccccc2)cc1)C(C)(C)C` [Example 74, N-(methoxycarbonyl)-3-methyl-L-valyl-N-(4-{[{4-[(1-{(2R)-2-[(tert-butoxycarbonyl)amino]-2-phenylacetyl}-L-prolyl)amino]benzyl}(phenyl)amino]methyl}phenyl)-L-prolinamide]: the EC50 was less than 1 nM. In the case of `CCN(C(C)=O)[C@@H](C(=O)N1CCC[C@H]1C(=O)Nc1ccc(CN(Cc2ccc(NC(=O)[C@@H]3CCCN3C(=O)[C@@H](c3ccccc3)N(CC)C(C)=O)cc2)c2ccc(F)cc2)cc1)c1ccccc1` [Example 122, (2S,2′S)-N,N′-{[(4-fluorophenyl)imino]bis(methanediylbenzene-4,1-diyl)}bis(1-{(2R)-2-[acetyl(ethyl)amino]-2-phenylacetyl}pyrrolidine-2-carboxamide)], the concentration for a half-maximal effect (EC50) lay in the range of 10 to 100 nM.
